Experimental data published in patent US12234230B2, “Substituted benzyl-triazole compounds for Cbl-b inhibition, and further uses thereof” (Nurix Therapeutics, Inc., priority 2019, dated 2025).
pIC50: −log10 of the molar value.

Key:
[1] = tested on: primary human total T-cells; assay: Primary human total T-cell activation (IL-2 secretion, CD25 surface staining), Biological Example 9; settings: fold change over baseline, Table 9-1; for IL-2 secretion CD3/CD28 0.3 μM: 0.3 μM inhibitor; for IL-2 secretion CD3/CD28 0.3 μM / IL-2 secretion CD3/CD28 1 μM: anti-CD3 and anti-CD28 co-stimulation; for IL-2 secretion CD3/CD28 1 μM / IL-2 secretion CD3 1 μM: 1 μM inhibitor
Method: Peripheral blood mononuclear cells (PBMC) were obtained either: 1) by using Ficoll-Paque™ (GE Healthcare) for separation of peripheral blood hematopoietic cells from buffy coats of healthy human donors; or 2) directly from LeukoPak donations. […] The cells were rested overnight at 37° C. 5% CO2. The Cbl-inhibitor was added to 1×10^5 cells per well and the plate was incubated for one hour at 37° C. in 5% CO2 at the concentrations indicated (Table 9-1) with a final DMSO concentration of <0.1%. For samples stimulated with anti-CD3 antibody and anti-CD28 antibody (anti-CD3/anti-CD28), the Cbl-b inhibitor concentrations tested were 1 μM, and 0.3 μM. For samples stimulated with anti-CD3 antibody alone (anti-CD3), the Cbl-b inhibitor concentrations tested were 3 μM, and 1 μM. […] To prepare plates with plate bound anti-CD3 antibody (OKT3), 96-well round bottom tissue culture plates were coated with 100 μL of anti-CD3 antibody (OKT3) at 10 μg/mL for 4 hours at 37° C. 5% CO2 in phosphate buffered saline (PBS). […] Cells were stimulated for 48 hours prior to harvesting the cell free supernatant and staining the cell population for surface marker assessment by flow cytometry. Supernatants were analyzed for cytokine secretion, including IL-2 by ELISA (R&D Systems, Peprotech or Life Technologies) or Luminex multiplex kits (Procarta Life Technologies) following the manufacturer's protocol. Cells were stained with anti-CD25 antibody (BD Biosciences) to assess levels of surface marker of activation.
Readouts were reported as fold change over baseline. Baseline for this study was the measurement obtained from total human T-cells stimulated with anti-CD3 antibody and with soluble anti-CD28 antibody, wherein the cells were not incubated with a Cbl-b inhibitor (Table 9-1). […] For T-cells stimulated with anti-CD3 alone, changes greater than 0.1-fold over baseline for IL-2 secretion and greater than 0.6-fold over baseline for CD25 surface staining were considered significant and a positive response.

[2] = molecular target: T1, Cbl-b (Homo sapiens (Human), UniProt Q13191); assay: Cbl-b displacement assay (Cbl-b inhibition assay), Biological Example 11; assay type: binding; settings: 0.125 nM Cbl-b final concentration (Low); Table 11-1
T1 sequence (Q13191 36-427): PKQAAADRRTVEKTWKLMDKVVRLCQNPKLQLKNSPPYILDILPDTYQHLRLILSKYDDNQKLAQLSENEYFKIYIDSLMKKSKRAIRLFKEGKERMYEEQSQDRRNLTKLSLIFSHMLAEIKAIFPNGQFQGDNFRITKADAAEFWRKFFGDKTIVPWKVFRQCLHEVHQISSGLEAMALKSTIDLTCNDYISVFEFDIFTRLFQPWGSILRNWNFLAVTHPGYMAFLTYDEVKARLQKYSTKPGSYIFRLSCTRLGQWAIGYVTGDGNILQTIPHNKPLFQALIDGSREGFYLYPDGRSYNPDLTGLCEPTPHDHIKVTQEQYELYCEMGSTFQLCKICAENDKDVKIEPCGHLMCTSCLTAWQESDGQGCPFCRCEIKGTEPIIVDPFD
Method: (§1) Candidate compounds were evaluated for their ability to bind and inhibit Cbl-b, an E3 ubiquitin-protein ligase, as evidenced by their ability to displace a fluorophore-labeled probe bound to Cbl-b.
(§2) The ability of candidate compounds to displace a known inhibitor and thereby inhibit Cbl-b activity was measured by monitoring the interaction of Cbl-b with a fluorophore-labeled probe in the presence of the candidate compound.
(§3) Fluorescently-labeled inhibitor probe was synthesized and tagged with BODIPY FL. […] Following the one hour incubation, the plates were read for TR-FRET signal at 520/620 nm using an Envision plate reader (Perkin Elmer).
(§4) The resulting data for the Cbl-b activity assays were analyzed using standard methods to determine the IC50 values for the tested compounds.

[3] = molecular target: T1, Cbl-b; assay: Cbl-b displacement assay (Cbl-b inhibition assay), Biological Example 8; assay type: binding; settings: 0.125 nM Cbl-b final concentration (Low); Table 8-1
Method: as §1, §2, §3, §4

[4] = tested on: primary human total T-cells; assay: Primary human total T-cell activation (IL-2 secretion, CD25 surface staining), Biological Example 12; settings: fold change over baseline, Table 12-1; for IL-2 secretion CD3/CD28 0.3 μM: 0.3 μM inhibitor; for IL-2 secretion CD3/CD28 0.3 μM / IL-2 secretion CD3/CD28 1 μM: anti-CD3 and anti-CD28 co-stimulation; for IL-2 secretion CD3/CD28 1 μM / IL-2 secretion CD3 1 μM: 1 μM inhibitor
Method: Peripheral blood mononuclear cells (PBMC) were obtained either: 1) by using Ficoll-Paque™ (GE Healthcare) for separation of peripheral blood hematopoietic cells from buffy coats of healthy human donors; or 2) directly from LeukoPak donations. […] The cells were rested overnight at 37° C. 5% CO2. The Cbl-inhibitor was added to 1×10^5 cells per well and the plate was incubated for one hour at 37° C. in 5% CO2 at the concentrations indicated (Table 12-1) with a final DMSO concentration of <0.1%. For samples stimulated with anti-CD3 antibody and anti-CD28 antibody (anti-CD3/anti-CD28), the Cbl-b inhibitor concentrations tested were 1 μM, and 0.3 μM. For samples stimulated with anti-CD3 antibody alone (anti-CD3), the Cbl-b inhibitor concentrations tested were 3 μM, and 1 μM. […] To prepare plates with plate bound anti-CD3 antibody (OKT3), 96-well round bottom tissue culture plates were coated with 100 μL of anti-CD3 antibody (OKT3) at 10 μg/mL for 4 hours at 37° C. 5% CO2 in phosphate buffered saline (PBS). […] Cells were stimulated for 48 hours prior to harvesting the cell free supernatant and staining the cell population for surface marker assessment by flow cytometry. Supernatants were analyzed for cytokine secretion, including IL-2 by ELISA (R&D Systems, Peprotech or Life Technologies) or Luminex multiplex kits (Procarta Life Technologies) following the manufacturer's protocol. Cells were stained with anti-CD25 antibody (BD Biosciences) to assess levels of surface marker of activation.
Readouts were reported as fold change over baseline. Baseline for this study was the measurement obtained from total human T-cells stimulated with anti-CD3 antibody and with soluble anti-CD28 antibody, wherein the cells were not incubated with a Cbl-b inhibitor (Table 12-1). […] For T-cells stimulated with anti-CD3 alone, changes greater than 0.1-fold over baseline for IL-2 secretion and greater than 0.6-fold over baseline for CD25 surface staining were considered significant and a positive response.

[5] = molecular target: T1, Cbl-b; assay: Cbl-b displacement assay (Cbl-b inhibition assay), Biological Example 1; assay type: binding
Method: as §2
Following the one hour incubation, the plates were read for TR-FRET signal at 520/620 nm using an Envision plate reader (Perkin Elmer).

[6] = tested on: primary human total T-cells; assay: Primary human total T-cell activation (IL-2 secretion, CD25 surface staining), Biological Example 2; settings: fold change over baseline; for IL-2 secretion CD3/CD28 0.3 μM / CD25 staining CD3/CD28 0.3 μM: 0.3 μM inhibitor; for IL-2 secretion CD3/CD28 0.3 μM / IL-2 secretion CD3/CD28 1 μM / CD25 staining CD3/CD28 0.3 μM / CD25 staining CD3/CD28 1 μM: anti-CD3 and anti-CD28 co-stimulation; for IL-2 secretion CD3/CD28 1 μM / CD25 staining CD3 1 μM / IL-2 secretion CD3 1 μM / CD25 staining CD3/CD28 1 μM: 1 μM inhibitor; for CD25 staining CD3 1 μM / IL-2 secretion CD3 1 μM / CD25 staining CD3 3 μM / IL-2 secretion CD3 3 μM: anti-CD3 stimulation alone; for CD25 staining CD3 3 μM / IL-2 secretion CD3 3 μM: 3 μM inhibitor
Method: Peripheral blood mononuclear cells (PBMC) were obtained either: 1) by using Ficoll-Paque™ (GE Healthcare) for separation of peripheral blood hematopoietic cells from buffy coats of healthy human donors; or 2) directly from LeukoPak donations. […] The cells were rested overnight at 37° C. 5% CO2. The Cbl-inhibitor was added to 1×10^5 cells per well and the plate was incubated for one hour at 37° C. in 5% CO2 at the concentrations indicated (Table 3) with a final DMSO concentration of <0.1%. For samples stimulated with anti-CD3 antibody and anti-CD28 antibody (anti-CD3/anti-CD28), the Cbl-b inhibitor concentrations tested were 1 μM, and 0.3 μM. For samples stimulated with anti-CD3 antibody alone (anti-CD3), the Cbl-b inhibitor concentrations tested were 3 μM, and 1 μM. […] To prepare plates with plate bound anti-CD3 antibody (OKT3), 96-well round bottom tissue culture plates were coated with 100 μL of anti-CD3 antibody (OKT3) at 10 μg/mL for 4 hours at 37° C. 5% CO2 in phosphate buffered saline (PBS). […] Cells were stimulated for 48 hours prior to harvesting the cell free supernatant and staining the cell population for surface marker assessment by flow cytometry. Supernatants were analyzed for cytokine secretion, including IL-2 by ELISA (R&D Systems, Peprotech or Life Technologies) or Luminex multiplex kits (Procarta Life Technologies) following the manufacturer's protocol. Cells were stained with anti-CD25 antibody (BD Biosciences) to assess levels of surface marker of activation.
Readouts were reported as fold change over baseline. Baseline for this study was the measurement obtained from total human T-cells stimulated with anti-CD3 antibody and with soluble anti-CD28 antibody, wherein the cells were not incubated with a Cbl-b inhibitor (Table 3).

[7] = tested on: colon carcinoma CT26 tumor cells; settings: 30 mg/kg PO daily D8 to D28; CT26 tumors on both flanks; compared to vehicle control
Method: Mice were implanted with 100,000 colon carcinoma CT26 tumor cells on both flanks of the mice. […] Treatments were continued daily until Day Twenty Eight (D28). […] A group of mice received an oral vehicle (0.5% Methylcellulose, 0.2% Polysorbate 80). Tumor growth inhibition (TGI) was calculated as follows: (1−(median tumor volume of drug treated group/median tumor volume of vehicle treated group))×100.

[8] = tested on: TC-1 cells; assay: TC-1 syngeneic mouse model, vaccine combination, Biological Example 15; assay type: in vivo; settings: Compound 23 orally D13 to D47 in combination with HPV16 vaccine s.c. at D13 and D20; TC-1 tumor bearing mice
Method: Mice were implanted with 50,000 TC-1 cells/mouse subcutaneously into the right flank at Day Zero (DO). Thirteen days later (D13), when tumors measured approximately 50-100 mm^3, mice from appropriate groups (15 mice per group) were injected with HPV16 vaccine (s.c., total 2 doses, at D13 and Day 20 (D20)). […] Mice were euthanized when tumor exceeded 1500-2000 mm^3, according to IACUC guidelines. Survival was compared using GraphPad Prism using log-rank (Mantel-Cox) test. **=p<0.001 of treatment vs. Vehicle+Vaccine control group at Day 61.
TC-1 cells were derived by stable transfection of mouse lung epithelial cells with human papillomavirus strain 16 (HPV16) early proteins 6 and 7 (E6 and E7) and activated h-ras oncogene. Cells were obtained from Dr. T-C Wu (Johns Hopkins University). (Lin K Y, Guarnieri F G, Staveley-O'Carroll K F, Levitsky H I, August J T, Pardoll D M, et al. Treatment of established tumors with a novel vaccine that enhances major histocompatibility class II presentation of tumor antigen. Cancer Res 1996; 56:21-6).
The HPV16 vaccine was prepared as follows: The CTL epitope from HPV16 E749-57 (9 amino acid (aa) peptide, […], 100 μg/mouse, SEQ ID NO: 2) was mixed with synthetic T helper epitope PADRE (13 aa peptide, aK-Cha-[…]a, SEQ ID NO: 3, where “a” is D-alanine and Cha is L-cyclohexylalanine, 20 μg/mouse) and with QuilA adjuvant (20 ug/mouse).

[9] = 3 μM inhibitor, anti-CD3 stimulation alone
[10] = 0.125 nM Cbl-b final concentration (Low), read-out: Cbl-b activity IC50 (Low)

| pIC50 [2] | pIC50 [3] | pIC50 [5, 10] | SMILES | IL-2 secretion CD3/CD28 0.3 μM [1] | IL-2 secretion CD3/CD28 1 μM [1] | IL-2 secretion CD3 1 μM ([1]; anti-CD3 stimulation alone) | IL-2 secretion CD3 3 μM [1, 9] | IL-2 secretion CD3/CD28 0.3 μM [4] | IL-2 secretion CD3/CD28 1 μM [4] | IL-2 secretion CD3 1 μM ([4]; anti-CD3 stimulation alone) | IL-2 secretion CD3 3 μM [4, 9] | IL-2 secretion CD3/CD28 0.3 μM [6] | IL-2 secretion CD3/CD28 1 μM [6] | CD25 staining CD3 1 μM [6] | IL-2 secretion CD3 1 μM [6] | CD25 staining CD3 3 μM [6] | IL-2 secretion CD3 3 μM [6] | CD25 staining CD3/CD28 0.3 μM [6] | CD25 staining CD3/CD28 1 μM [6] | further results |
| --- | --- | --- | --- | --- | --- | --- | --- | --- | --- | --- | --- | --- | --- | --- | --- | --- | --- | --- | --- | --- |
| > 9.00 | > 9.00 | > 8.30 | C[C@H]1CCCN(Cc2cc3c(c(C(F)(F)F)c2)CN(c2cccc([C@H](c4nncn4C)C4CCC4)c2)C3=O)C1 [Compound 3, 2-(3-((R)-cyclobutyl(4-methyl-4H-1,2,4-triazol-3-yl)methyl)phenyl)-6-(((S)-3-methylpiperidin-1-yl)methyl)-4-(trifluoromethyl)isoindolin-1-one] | A (A indicates >15 fold) | A (A indicates >15 fold) | A (A indicates >0.66 fold) | A (A indicates >0.66 fold) | A (A indicates >15 fold) | A (A indicates >15 fold) | A (A indicates >0.66 fold) | A (A indicates >0.66 fold) | A (A indicates >35 fold) | A (A indicates >35 fold) | A (A indicates >2.5 fold) | A (A indicates >1.1 fold) | A (A indicates >2.5 fold) | A (A indicates >1.1 fold) |  |  | pIC50 ([5]; read-out: IC50 values in the Cbl-b inhibition assay of Biological Example 1): ≥ 8.30 |
|  |  | > 8.30 | C[C@@H]1CN(Cc2cc3c(c(C(F)(F)F)c2)CN(c2cccc([C@H](c4nncn4C)C4CCC4)c2)C3=O)CCO1 [Compound 17, 2-(3-((R)-cyclobutyl(4-methyl-4H-1,2,4-triazol-3-yl)methyl)phenyl)-6-(((R)-2-methylmorpholino)methyl)-4-(trifluoromethyl)isoindolin-1-one] | B (B indicates 10-15 fold) | A (A indicates >15 fold) | A (A indicates >0.66 fold) | A (A indicates >0.66 fold) | B (B indicates 11-15 fold) | A (A indicates >15 fold) | A (A indicates >0.66 fold) | A (A indicates >0.66 fold) | B (B indicates 20-35 fold) | A (A indicates >35 fold) | B (B indicates 1.5-2.5 fold) | A (A indicates >1.1 fold) | B (B indicates 1.5-2.5 fold) | A (A indicates >1.1 fold) | B (B indicates 1.24-1.39 fold) | B (B indicates 1.24-1.39 fold) | CD25 staining CD3 3 μM [1, 9]: B (B indicates 1.05-1.14 fold); CD25 staining CD3 3 μM [4, 9]: B (B indicates 1.05-1.14 fold) |
| 8.30 to 9.00 | 8.30 to 9.00 | > 8.30 | C[C@H]1CCCN(Cc2cc3c(c(C(F)(F)F)c2)CN(c2cccc([C@]4(c5nncn5C)C[C@@H](C#N)C4)c2)C3=O)C1 [Compound 38, (1R,3s)-3-(4-methyl-4H-1,2,4-triazol-3-yl)-3-(3-(6-(((S)-3-methylpiperidin-1-yl)methyl)-1-oxo-4-(trifluoromethyl)isoindolin-2-yl)phenyl)cyclobutane-1-carbonitrile] | A (A indicates >15 fold) | A (A indicates >15 fold) | A (A indicates >0.66 fold) | A (A indicates >0.66 fold) | A (A indicates >15 fold) | A (A indicates >15 fold) | A (A indicates >0.66 fold) | A (A indicates >0.66 fold) | B (B indicates 20-35 fold) | B (B indicates 20-35 fold) | A (A indicates >2.5 fold) | A (A indicates >1.1 fold) | A (A indicates >2.5 fold) | B (B indicates 0.70-1.1 fold) |  |  |  |
| > 9.00 | > 9.00 | > 8.30 | C[C@H]1CCCN(Cc2cc3c(c(C(F)(F)F)c2)CN(c2cccc(C4(c5nncn5C)CC5(CC5)C4)c2)C3=O)C1 [Compound 42, 6-[[(3S)-3-methyl-1-piperidyl]methyl]-2-[3-[5-(4-methyl-1,2,4-triazol-3-yl)spiro[2.3]hexan-5-yl]phenyl]-4-(trifluoromethyl)isoindolin-1-one] | A (A indicates >15 fold) | A (A indicates >15 fold) | A (A indicates >0.66 fold) | A (A indicates >0.66 fold) | A (A indicates >15 fold) | A (A indicates >15 fold) | A (A indicates >0.66 fold) | A (A indicates >0.66 fold) | B (B indicates 20-35 fold) | A (A indicates >35 fold) | A (A indicates >2.5 fold) | A (A indicates >1.1 fold) | A (A indicates >2.5 fold) | A (A indicates >1.1 fold) | B (B indicates 1.24-1.39 fold) | B (B indicates 1.24-1.39 fold) |  |

| SMILES | pIC50 [2] | pIC50 [3] | pIC50 [5, 10] | IL-2 secretion CD3/CD28 0.3 μM [1] | IL-2 secretion CD3/CD28 1 μM [1] | IL-2 secretion CD3 1 μM ([1]; anti-CD3 stimulation alone) | IL-2 secretion CD3 3 μM [1, 9] | IL-2 secretion CD3/CD28 0.3 μM [4] | IL-2 secretion CD3/CD28 1 μM [4] | IL-2 secretion CD3 1 μM ([4]; anti-CD3 stimulation alone) | IL-2 secretion CD3 3 μM [4, 9] | IL-2 secretion CD3/CD28 0.3 μM [6] | IL-2 secretion CD3/CD28 1 μM [6] | CD25 staining CD3 1 μM [6] | IL-2 secretion CD3 1 μM [6] | CD25 staining CD3 3 μM [6] | IL-2 secretion CD3 3 μM [6] | CD25 staining CD3/CD28 0.3 μM [6] | CD25 staining CD3/CD28 1 μM [6] | further results |
| --- | --- | --- | --- | --- | --- | --- | --- | --- | --- | --- | --- | --- | --- | --- | --- | --- | --- | --- | --- | --- |
| C[C@H]1CCCN(Cc2cc3c(c(C(F)(F)F)c2)CN(c2cccc([C@]4(c5nncn5C)C[C@@H](C)C4)c2)C3=O)C1 [Compound 23, 2-(3-((1s,3R)-3-methyl-1-(4-methyl-4H-1,2,4-triazol-3-yl)cyclobutyl)phenyl)-6-(((S)-3-methylpiperidin-1-yl)methyl)-4-(trifluoromethyl)isoindolin-1-one] | > 9.00 | > 9.00 | > 8.30 | A (A indicates >15 fold) | A (A indicates >15 fold) |  |  | A (A indicates >15 fold) | A (A indicates >15 fold) |  |  | C (C indicates <20 fold) | C (C indicates <20 fold) |  |  |  |  | B (B indicates 1.24-1.39 fold) | B (B indicates 1.24-1.39 fold) | Tumor growth inhibition (TGI) [7]: 68%; survival [8]: prolonged survival; tumor progression (tumor volume) [8]: significant slowdown of tumor progression |
